Experimental data published in ChEMBL document CHEMBL1201862, “PubChem BioAssay data set” (2004).
Calls of active or inactive are those of the source.

Tests used:
Format in all cases: functional
[1] = molecular target: Dual specificity mitogen-activated protein kinase kinase 1 (Homo sapiens, UniProt Q02750); assay: Navigating the Kinome. Panel member name: MAP2K1
[2] = molecular target: T1, Serine/threonine-protein kinase D3 (Homo sapiens, UniProt O94806);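 further: determined within a kinase panel screen, with PRKCN as the panel member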
T1 sequence (O94806 whole entry): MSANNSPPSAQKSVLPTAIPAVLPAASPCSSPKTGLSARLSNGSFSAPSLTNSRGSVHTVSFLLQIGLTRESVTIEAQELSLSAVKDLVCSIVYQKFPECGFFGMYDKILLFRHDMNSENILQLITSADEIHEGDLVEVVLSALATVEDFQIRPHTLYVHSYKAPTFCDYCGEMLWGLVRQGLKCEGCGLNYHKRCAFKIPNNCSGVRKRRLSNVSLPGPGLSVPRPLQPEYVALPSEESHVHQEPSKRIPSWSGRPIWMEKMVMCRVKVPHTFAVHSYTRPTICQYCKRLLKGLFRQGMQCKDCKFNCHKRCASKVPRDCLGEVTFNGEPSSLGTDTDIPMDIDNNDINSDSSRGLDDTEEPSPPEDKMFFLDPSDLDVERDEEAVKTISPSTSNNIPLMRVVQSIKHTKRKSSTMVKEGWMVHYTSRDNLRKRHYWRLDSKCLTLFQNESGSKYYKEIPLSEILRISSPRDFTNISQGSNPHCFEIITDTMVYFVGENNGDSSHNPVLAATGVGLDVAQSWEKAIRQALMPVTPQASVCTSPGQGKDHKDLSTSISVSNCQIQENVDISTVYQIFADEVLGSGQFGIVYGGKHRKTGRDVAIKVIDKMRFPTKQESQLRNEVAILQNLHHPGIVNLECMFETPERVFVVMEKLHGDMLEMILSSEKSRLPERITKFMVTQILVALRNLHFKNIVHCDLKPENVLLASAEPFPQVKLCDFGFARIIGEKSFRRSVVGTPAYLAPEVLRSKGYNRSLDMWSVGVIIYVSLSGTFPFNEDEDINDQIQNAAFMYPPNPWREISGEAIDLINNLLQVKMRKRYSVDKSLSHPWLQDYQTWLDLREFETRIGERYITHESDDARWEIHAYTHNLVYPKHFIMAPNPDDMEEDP

[3] = molecular target: Death-associated protein kinase 3 (Homo sapiens, UniProt O43293);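 further: measured as one member of a kinome-wide profiling panel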
[4] = molecular target: Tyrosine-protein kinase BTK (Homo sapiens, UniProt Q06187)
[5] = molecular target: Mitogen-activated protein kinase 9 (Homo sapiens, UniProt P45984);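 further: value from a kinome panel profiling assay, MAPK9 panel entry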
[6] = molecular target: T2, Serine/threonine-protein kinase Chk1 (Homo sapiens, UniProt O14757);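 further: measured as one member of a kinome-wide kinase profiling panel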
T2 sequence (O14757 whole entry): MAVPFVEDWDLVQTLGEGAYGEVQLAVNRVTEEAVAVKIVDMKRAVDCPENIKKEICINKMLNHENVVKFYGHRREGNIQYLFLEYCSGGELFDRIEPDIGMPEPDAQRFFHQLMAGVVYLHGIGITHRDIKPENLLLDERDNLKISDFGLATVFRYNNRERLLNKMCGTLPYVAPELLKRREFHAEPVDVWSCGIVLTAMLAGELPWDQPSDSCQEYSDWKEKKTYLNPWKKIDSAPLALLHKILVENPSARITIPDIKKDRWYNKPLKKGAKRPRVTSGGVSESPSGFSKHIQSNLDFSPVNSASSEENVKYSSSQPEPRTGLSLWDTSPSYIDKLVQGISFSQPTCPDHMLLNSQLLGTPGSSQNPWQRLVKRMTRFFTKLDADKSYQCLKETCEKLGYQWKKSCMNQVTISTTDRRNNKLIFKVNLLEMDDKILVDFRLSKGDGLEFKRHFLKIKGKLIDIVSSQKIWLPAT

[7] = molecular target: Tyrosine-protein kinase ABL1 (Homo sapiens, UniProt P00519)
[8] = molecular target: G protein-coupled receptor kinase 5 (Homo sapiens, UniProt P34947); assay: Navigating the Kinome. Panel member name: GPRK5
[9] = molecular target: Cyclin-dependent kinase 5 (Homo sapiens, UniProt Q00535);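 further: CDK5 measured as one member of a kinase profiling panel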
[10] = molecular target: Insulin-like growth factor 1 receptor (Homo sapiens, UniProt P08069); assay: Navigating the Kinome. Panel member name: IGF1R
Aurora kinase B = Aurora kinase B (Homo sapiens, UniProt Q96GD4)
[11] = molecular target: Tyrosine-protein kinase Fyn (Homo sapiens, UniProt P06241)
[12] = molecular target: Cyclin-dependent kinase 8 (Homo sapiens, UniProt P49336); assay: Navigating the Kinome. Panel member name: CDK8
[13] = molecular target: Cyclin-dependent kinase 7 (Homo sapiens, UniProt P50613);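 further: value comes from a kinome-wide kinase profiling panel in which CDK7 is one member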
[14] = molecular target: Vascular endothelial growth factor receptor 1 (Homo sapiens, UniProt P17948);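 further: measured within a kinome-wide profiling panel, FLT1 as the panel member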
[15] = molecular target: BDNF/NT-3 growth factors receptor (Homo sapiens, UniProt Q16620);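 further: NTRK2 measured as one member of a broad kinome-wide kinase profiling panel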
[16] = molecular target: cAMP-dependent protein kinase catalytic subunit alpha (Homo sapiens, UniProt P17612)
[17] = molecular target: Mitogen-activated protein kinase kinase kinase kinase 4 (Homo sapiens, UniProt O95819)
[18] = molecular target: Macrophage-stimulating protein receptor (Homo sapiens, UniProt Q04912); assay: Navigating the Kinome. Panel member name: MST1R
[19] = molecular target: Dual specificity tyrosine-phosphorylation-regulated kinase 1A (Homo sapiens, UniProt Q13627);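 further: measured against DYRK1A as one member of a broad kinome profiling panel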
[20] = molecular target: Calcium/calmodulin-dependent protein kinase type II subunit alpha (Homo sapiens, UniProt Q9UQM7); assay: Navigating the Kinome. Panel member name: CAMK2A
[21] = molecular target: Mitogen-activated protein kinase 14 (Homo sapiens, UniProt Q16539);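 further: part of a kinome-wide panel, MAPK14 entry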

Chain of Cyclin-dependent kinase 7 (P50613 whole entry): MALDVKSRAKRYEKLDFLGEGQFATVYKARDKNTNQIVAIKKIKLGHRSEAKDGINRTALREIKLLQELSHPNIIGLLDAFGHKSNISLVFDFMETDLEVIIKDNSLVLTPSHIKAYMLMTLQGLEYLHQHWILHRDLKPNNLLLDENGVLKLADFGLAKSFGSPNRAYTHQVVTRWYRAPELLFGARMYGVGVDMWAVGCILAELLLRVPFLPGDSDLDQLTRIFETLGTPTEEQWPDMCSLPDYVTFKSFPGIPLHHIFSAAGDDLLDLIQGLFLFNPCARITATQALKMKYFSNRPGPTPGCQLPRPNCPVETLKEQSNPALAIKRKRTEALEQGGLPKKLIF
Chain of Dual specificity mitogen-activated protein kinase kinase 1 (Q02750 whole entry): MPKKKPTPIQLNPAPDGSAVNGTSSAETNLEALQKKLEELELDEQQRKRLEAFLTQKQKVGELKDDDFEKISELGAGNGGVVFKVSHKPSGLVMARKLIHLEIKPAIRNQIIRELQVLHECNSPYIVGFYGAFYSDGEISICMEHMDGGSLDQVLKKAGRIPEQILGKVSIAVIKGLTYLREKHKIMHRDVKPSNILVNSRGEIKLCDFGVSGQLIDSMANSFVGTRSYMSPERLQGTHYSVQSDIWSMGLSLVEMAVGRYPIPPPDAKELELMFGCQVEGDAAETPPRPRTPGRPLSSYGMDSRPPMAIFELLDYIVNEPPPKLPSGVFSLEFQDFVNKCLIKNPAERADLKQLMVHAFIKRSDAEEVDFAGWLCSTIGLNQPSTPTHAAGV
Chain of Cyclin-dependent kinase 5 (Q00535 whole entry): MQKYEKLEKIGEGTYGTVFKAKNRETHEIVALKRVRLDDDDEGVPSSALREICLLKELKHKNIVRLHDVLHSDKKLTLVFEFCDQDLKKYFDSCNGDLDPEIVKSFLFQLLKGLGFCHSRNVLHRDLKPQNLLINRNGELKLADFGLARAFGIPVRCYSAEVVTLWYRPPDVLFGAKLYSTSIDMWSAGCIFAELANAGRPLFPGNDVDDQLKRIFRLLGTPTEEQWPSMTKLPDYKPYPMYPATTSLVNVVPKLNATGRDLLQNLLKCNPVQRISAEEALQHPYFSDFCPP
Chain of Mitogen-activated protein kinase 9 (P45984 whole entry): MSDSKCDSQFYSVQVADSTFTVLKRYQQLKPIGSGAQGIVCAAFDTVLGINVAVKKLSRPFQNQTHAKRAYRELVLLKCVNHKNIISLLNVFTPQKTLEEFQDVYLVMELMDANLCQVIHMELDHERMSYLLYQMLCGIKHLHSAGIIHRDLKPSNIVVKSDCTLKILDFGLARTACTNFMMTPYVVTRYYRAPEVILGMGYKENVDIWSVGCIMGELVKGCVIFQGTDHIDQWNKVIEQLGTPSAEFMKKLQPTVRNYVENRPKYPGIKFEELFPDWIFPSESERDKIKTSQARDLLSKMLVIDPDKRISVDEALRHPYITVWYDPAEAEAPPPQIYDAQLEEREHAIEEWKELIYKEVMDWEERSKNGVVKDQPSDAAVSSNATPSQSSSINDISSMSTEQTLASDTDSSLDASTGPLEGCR
Chain of Cyclin-dependent kinase 8 (P49336 whole entry): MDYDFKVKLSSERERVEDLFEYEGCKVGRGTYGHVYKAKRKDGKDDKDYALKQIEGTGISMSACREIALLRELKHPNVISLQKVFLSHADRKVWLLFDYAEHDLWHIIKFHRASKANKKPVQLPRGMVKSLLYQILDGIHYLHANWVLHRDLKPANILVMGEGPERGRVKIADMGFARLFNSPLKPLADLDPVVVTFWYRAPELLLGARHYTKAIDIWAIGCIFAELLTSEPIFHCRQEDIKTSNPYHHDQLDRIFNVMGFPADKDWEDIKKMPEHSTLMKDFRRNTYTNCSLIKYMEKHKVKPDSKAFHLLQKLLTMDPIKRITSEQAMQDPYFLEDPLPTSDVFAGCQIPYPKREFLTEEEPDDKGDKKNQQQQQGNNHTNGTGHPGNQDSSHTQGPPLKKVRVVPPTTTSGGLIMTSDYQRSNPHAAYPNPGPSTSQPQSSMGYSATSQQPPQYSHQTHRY
Chain of Macrophage-stimulating protein receptor (Q04912 25-304 limits assumed): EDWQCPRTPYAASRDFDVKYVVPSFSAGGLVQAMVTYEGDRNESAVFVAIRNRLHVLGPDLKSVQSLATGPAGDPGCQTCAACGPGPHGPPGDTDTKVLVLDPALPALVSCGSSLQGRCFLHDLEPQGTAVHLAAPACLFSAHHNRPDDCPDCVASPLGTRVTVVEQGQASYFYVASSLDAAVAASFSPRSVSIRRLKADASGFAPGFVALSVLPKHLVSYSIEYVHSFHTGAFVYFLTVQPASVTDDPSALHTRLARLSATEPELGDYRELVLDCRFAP
Chain of Macrophage-stimulating protein receptor (Q04912 310-1400 limits assumed): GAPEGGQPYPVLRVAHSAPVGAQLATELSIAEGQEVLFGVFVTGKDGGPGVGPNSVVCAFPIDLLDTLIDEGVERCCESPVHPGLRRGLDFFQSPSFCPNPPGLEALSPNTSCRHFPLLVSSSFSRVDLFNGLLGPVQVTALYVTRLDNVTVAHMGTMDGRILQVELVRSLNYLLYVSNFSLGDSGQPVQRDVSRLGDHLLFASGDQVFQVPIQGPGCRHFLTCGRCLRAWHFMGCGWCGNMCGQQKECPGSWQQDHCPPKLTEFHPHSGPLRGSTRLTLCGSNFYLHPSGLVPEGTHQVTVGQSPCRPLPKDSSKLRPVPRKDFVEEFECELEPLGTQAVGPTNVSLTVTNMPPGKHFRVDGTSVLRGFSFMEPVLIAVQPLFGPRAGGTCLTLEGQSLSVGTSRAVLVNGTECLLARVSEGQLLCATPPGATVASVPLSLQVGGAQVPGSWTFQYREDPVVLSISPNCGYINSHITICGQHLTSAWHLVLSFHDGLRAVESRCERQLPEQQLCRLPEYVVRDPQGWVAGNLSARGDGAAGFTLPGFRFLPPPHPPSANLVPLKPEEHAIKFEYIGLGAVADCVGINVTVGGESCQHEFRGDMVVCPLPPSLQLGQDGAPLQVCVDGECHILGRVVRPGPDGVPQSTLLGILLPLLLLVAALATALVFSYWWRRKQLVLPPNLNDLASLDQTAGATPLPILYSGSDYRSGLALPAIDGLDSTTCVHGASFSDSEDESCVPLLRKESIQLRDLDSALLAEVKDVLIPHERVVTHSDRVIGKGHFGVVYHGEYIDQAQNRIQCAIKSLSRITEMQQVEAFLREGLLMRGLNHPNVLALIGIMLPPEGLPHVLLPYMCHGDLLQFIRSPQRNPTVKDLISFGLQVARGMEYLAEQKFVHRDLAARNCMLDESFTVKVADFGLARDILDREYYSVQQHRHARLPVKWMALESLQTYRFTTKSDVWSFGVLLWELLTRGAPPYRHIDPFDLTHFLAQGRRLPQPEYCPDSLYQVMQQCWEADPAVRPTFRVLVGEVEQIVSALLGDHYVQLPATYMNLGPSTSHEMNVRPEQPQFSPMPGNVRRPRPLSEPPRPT
Chain of Aurora kinase B (Q96GD4 whole entry): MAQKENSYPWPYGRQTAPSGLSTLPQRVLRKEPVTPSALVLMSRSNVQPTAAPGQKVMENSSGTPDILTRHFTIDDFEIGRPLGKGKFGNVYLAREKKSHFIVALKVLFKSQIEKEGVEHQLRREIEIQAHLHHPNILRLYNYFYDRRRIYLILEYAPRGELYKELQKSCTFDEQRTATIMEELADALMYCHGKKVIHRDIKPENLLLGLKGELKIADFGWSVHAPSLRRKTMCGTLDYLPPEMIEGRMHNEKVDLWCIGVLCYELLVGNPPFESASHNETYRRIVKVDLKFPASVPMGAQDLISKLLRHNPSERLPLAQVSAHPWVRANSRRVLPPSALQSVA
Chain of BDNF/NT-3 growth factors receptor (Q16620 whole entry): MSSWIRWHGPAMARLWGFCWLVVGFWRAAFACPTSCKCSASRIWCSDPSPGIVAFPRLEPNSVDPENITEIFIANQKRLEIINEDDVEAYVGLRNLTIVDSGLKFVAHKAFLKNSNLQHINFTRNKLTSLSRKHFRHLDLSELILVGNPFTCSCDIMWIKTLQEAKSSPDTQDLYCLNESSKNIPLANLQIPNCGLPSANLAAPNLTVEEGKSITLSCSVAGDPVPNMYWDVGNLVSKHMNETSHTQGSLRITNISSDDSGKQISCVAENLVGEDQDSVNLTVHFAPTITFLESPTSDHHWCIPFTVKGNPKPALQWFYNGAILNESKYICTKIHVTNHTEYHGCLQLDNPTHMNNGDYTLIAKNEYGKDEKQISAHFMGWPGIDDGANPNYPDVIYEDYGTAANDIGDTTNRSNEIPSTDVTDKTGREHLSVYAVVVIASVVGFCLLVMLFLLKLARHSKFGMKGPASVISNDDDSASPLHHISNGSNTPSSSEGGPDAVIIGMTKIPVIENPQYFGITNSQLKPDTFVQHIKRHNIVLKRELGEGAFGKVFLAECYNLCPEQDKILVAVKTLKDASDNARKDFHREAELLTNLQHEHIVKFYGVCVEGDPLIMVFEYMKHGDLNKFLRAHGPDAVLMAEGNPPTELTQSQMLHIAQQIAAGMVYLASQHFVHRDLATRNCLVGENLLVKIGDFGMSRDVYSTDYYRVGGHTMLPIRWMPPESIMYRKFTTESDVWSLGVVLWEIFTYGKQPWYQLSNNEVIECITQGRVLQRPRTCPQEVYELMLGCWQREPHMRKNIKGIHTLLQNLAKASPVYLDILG
Chain of Calcium/calmodulin-dependent protein kinase type II subunit alpha (Q9UQM7 whole entry): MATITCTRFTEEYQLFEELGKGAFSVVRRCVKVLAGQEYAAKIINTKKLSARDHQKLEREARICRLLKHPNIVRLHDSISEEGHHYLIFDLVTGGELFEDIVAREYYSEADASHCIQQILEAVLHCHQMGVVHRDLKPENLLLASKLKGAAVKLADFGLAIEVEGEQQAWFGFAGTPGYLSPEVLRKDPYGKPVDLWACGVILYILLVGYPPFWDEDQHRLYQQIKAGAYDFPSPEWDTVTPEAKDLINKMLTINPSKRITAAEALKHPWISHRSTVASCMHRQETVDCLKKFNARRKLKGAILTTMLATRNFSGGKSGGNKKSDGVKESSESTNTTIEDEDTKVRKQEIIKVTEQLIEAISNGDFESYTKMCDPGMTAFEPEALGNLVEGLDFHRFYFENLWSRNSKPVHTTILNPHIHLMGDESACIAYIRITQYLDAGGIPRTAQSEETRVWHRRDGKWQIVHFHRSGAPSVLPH

SMILES	Ki [1]	Ki [2]	Ki [3]	Ki [4]	Ki [5]	Ki [6]	Ki [7]	Ki [8]	Ki [9]	Ki [10]	Ki (Aurora kinase B)	Ki [11]	Ki [12]	Ki [13]	Ki [14]	Ki [15]	Ki [16]	Ki [17]	Ki [18]	Ki [19]	also measured
COc1cccc(CNC(=O)c2cnc(-c3ccncc3)nc2)c1	> 3160 nM (inactive)	> 3980 nM (inactive)	> 5010 nM (inactive)	> 6310 nM (inactive)	> 3980 nM (inactive)	> 3160 nM (inactive)	> 3980 nM (inactive)	3980 nM (active)	> 3160 nM (inactive)	> 2510 nM (inactive)	> 3980 nM (inactive)	> 6310 nM (inactive)	> 3980 nM (inactive)	> 3980 nM (inactive)	> 3980 nM (inactive)	> 3980 nM (inactive)	316 nM (active)	> 5010 nM (inactive)	> 3980 nM (inactive)	> 2000 nM (inactive)	Ki [20]: > 7940 nM (inactive); Ki [21]: > 3980 nM (inactive)
OC1CCC(Nc2nc(Cl)cc(-c3c[nH]c4ncccc34)n2)CC1 (stereo not given)	31.6 nM (active)	15.8 nM (active)	79.4 nM (active)	> 1260 nM (inactive)	251 nM (active)	398 nM (active)	631 nM (active)	1580 nM (active)	10 nM (active)	> 2000 nM (inactive)	501 nM (active)	> 794 nM (inactive)	0.794 nM (active)	251 nM (active)	158 nM (active)	398 nM (active)	31.6 nM (active)	> 3.16 nM (inactive)	100 nM (active)	> 2 nM (inactive)	pKi [1]: 7.5; pKi [2]: 7.8; pKi [3]: 7.1; pKi [5]: 6.6; pKi [6]: 6.4; pKi [7]: 6.2; pKi [8]: 5.8; pKi [9]: 8; pKi (Aurora kinase B): 6.3; pKi [12]: 9.1; pKi [13]: 6.6; pKi [14]: 6.8; pKi [15]: 6.4; pKi [16]: 7.5; pKi [18]: 7; Ki [20]: 158 nM (active); pKi [20]: 6.8; Ki [21]: > 3980 nM (inactive)
